According to patent US9745261B2, “Inhibitors of the MITF molecular pathway” (THE GENERAL HOSPITAL CORPORATION, priority 2013, dated 2017):

Columns and labels:
A375 cells = assay: A-375 cell cytotoxicity assay (CellTiter-Glo); assay type: cell-based, human; conditions: Homo sapiens, A-375; 24 hours, CellTiter-Glo; read-out: Antitarget Potency IC50 (μM) A375
Method: A375 cells were treated with compounds for 24 hours, and then cell viability was measured using the CellTiter-Glo Assay (Promega), a luciferase-based reagent that measures cellular ATP levels. The compounds were tested at different concentrations to determine IC50 values. Compounds that were active in the primary assay and were not toxic below 30 μM at 24 hours were considered for probe development. Data were normalized against DMSO in Genedata Screener's Assay Analyzer.
A-375 cells were maintained in DMEM (10% FBS, 1% Pen-Strep-Glutamine). Cells were fluid changed every 3 days and/or split upon reaching 90% confluency. For secondary assays, cells were thawed at 2 million cells per Falcon T175 flask. After 3 days, cells were passed to a Corning Triple flask (6-8 million cells) and plated after 3 days in the triple flask.
Day 1 • 1. Plate A-375 cells at 3,000 per well in 30 uL media (phenol red free DMEM/10% Fetal Bovine Serum/Penicillin/Streptomycin/L-Glutamine) • 2. Use Corning white 384-well, square, opaque-bottomed plates (Corning Catalog No. 8867BC)
Day 2 • 3. Pin 100 nL compound/DMSO solution (Cybi Well) into assay plates. (For HTS, required sentinel pinning with the positive control, parthenolide (6 mM)) • 4. Incubate 24 hours at 37° C. in Liconic incubator.
Day 3 • 5. […] Read on the Perkin-Elmer EnVision plate reader with luminescence (LUM) settings for 0.1 sec per well. […]

DCT = assay: qPCR assay for DCT expression in SK-MEL-5 cells; assay type: cell-based; conditions: Homo sapiens; SK-MEL-5 melanoma cells, up to 35 μM
CDK2 = assay: qPCR assay for CDK2 expression in SK-MEL-5 cells; assay type: cell-based, human; conditions: Homo sapiens; SK-MEL-5 melanoma cells, up to 35 μM
Method: SK-MEL-5 cells were treated with compounds for 24 hours. Next, cells were lysed with DNase I (Ambion, from Cell to CT Lysis Mix). Lysed cells were delivered to a RT-PCR plate (Ambion, Cells to CT RT Mix) and the plates were then processed for reverse transcription to create cDNA. qPCR was performed by transferring cDNA from the RT-PCR plate to a qPCR plate containing PCR master mix (Roche, Probes Master), FAM Taqman probe/primer set for the target gene (human MITF, Applied Biosystem, 4331182 Hs01117294_m1), VIC Taqman probe/primer set for a house keeping gene (human GAPDH, Applied Biosystems C10228) and water. qPCR plates were cycled using a real-time PCR instrument (Roche, Light Cycler). Using the instrument software, a cycle call was generated when each well enters log phase amplification (Ct). The delta Ct value was determined by subtracting the Ct value of the control gene (GAPDH) from the Ct value of the target gene (MITF) in each well. The delta delta Ct value of each compound treatment was determined by averaging the delta Ct values of the mock well on each plate and subtracting that average from the delta Ct value of each compound well. […]
• 10. […] The RT assay plates are incubated at 37° C. for 1 hour and the reverse transcriptase is inactivated by incubating the plates for 1 minute at 95° C. • 13. cDNA is stored at −80° C. until ready for qPCR analysis […]

Adrenergic α2A = target: T1, Adrenergic α2A (Homo sapiens, UniProt P08913); assay: Radioligand binding, Adrenergic α2A
T1 construct: Eurofins Panlabs, Inc. (contract assay)
T1 sequence (P08913 whole entry): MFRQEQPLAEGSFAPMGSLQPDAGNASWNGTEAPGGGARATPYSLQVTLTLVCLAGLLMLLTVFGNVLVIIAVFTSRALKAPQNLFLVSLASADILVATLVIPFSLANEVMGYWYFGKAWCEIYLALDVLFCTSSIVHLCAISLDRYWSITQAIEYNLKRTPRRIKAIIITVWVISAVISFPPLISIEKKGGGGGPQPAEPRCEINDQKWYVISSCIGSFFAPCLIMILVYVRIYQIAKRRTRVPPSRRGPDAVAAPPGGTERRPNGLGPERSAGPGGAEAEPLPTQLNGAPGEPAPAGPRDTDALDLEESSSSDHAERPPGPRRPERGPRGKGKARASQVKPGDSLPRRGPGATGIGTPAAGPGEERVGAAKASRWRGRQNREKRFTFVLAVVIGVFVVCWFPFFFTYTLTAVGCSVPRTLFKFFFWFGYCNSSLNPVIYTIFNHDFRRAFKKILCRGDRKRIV

[1] = target: T2, Leukotriene, Cysteinyl CysLT1 (Homo sapiens, UniProt Q9Y271); assay: Radioligand binding, Leukotriene, Cysteinyl CysLT1
T2 construct: Eurofins Panlabs, Inc
T2 sequence (Q9Y271 whole entry): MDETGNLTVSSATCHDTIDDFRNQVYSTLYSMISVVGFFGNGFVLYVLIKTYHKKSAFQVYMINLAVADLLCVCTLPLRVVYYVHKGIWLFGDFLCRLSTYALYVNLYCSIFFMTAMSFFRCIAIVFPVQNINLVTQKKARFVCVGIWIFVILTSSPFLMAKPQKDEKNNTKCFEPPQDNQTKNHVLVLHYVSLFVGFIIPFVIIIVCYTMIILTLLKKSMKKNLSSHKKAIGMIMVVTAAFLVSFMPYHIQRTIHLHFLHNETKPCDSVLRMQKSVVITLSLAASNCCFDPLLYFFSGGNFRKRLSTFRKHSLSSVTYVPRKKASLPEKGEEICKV

Adrenergic α1B = target: T3, Adrenergic α1B (Rattus norvegicus, UniProt P15823); assay: Radioligand binding, Adrenergic α1B
T3 construct: Eurofins Panlabs, Inc. (contract assay)
T3 sequence (P15823 whole entry): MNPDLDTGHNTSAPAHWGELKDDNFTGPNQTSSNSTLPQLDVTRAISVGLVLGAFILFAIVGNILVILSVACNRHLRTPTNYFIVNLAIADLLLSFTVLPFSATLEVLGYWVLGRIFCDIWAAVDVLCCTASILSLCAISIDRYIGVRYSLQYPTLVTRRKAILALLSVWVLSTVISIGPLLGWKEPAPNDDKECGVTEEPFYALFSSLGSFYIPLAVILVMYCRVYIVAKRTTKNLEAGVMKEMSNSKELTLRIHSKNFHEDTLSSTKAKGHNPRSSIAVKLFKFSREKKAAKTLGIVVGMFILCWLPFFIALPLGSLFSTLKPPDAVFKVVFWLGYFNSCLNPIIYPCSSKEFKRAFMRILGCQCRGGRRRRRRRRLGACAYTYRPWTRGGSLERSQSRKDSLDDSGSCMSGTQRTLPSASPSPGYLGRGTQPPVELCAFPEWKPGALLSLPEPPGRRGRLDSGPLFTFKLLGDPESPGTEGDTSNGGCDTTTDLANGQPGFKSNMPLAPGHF

Glutamate, NMDA, Glycine = target: T4, Glutamate, NMDA, Glycine (Rattus norvegicus, UniProt P35439); assay: Radioligand binding, Glutamate, NMDA, Glycine
T4 construct: Eurofins Panlabs, Inc

Neuropeptide Y Y1 = target: T5, Neuropeptide Y Y1 (Homo sapiens, UniProt P25929); assay: Radioligand binding, Neuropeptide Y Y1
T5 construct: Eurofins Panlabs, Inc
T5 sequence (P25929 whole entry): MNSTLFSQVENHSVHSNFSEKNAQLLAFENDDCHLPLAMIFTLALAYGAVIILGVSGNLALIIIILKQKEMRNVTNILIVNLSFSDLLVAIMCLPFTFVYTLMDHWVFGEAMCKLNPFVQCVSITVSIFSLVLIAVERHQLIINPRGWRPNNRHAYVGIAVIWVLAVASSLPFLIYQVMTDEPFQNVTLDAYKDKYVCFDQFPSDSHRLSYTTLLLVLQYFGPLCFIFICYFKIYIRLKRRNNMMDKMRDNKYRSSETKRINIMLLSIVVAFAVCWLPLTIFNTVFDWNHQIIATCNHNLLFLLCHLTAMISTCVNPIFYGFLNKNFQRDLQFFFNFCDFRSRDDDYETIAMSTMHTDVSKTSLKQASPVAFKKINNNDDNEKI

Potassium Channel hERG = target: T6, Potassium Channel hERG (Homo sapiens, UniProt Q12809); assay: Radioligand binding, Potassium Channel hERG
T6 construct: Eurofins Panlabs
T6 sequence (Q12809 whole entry): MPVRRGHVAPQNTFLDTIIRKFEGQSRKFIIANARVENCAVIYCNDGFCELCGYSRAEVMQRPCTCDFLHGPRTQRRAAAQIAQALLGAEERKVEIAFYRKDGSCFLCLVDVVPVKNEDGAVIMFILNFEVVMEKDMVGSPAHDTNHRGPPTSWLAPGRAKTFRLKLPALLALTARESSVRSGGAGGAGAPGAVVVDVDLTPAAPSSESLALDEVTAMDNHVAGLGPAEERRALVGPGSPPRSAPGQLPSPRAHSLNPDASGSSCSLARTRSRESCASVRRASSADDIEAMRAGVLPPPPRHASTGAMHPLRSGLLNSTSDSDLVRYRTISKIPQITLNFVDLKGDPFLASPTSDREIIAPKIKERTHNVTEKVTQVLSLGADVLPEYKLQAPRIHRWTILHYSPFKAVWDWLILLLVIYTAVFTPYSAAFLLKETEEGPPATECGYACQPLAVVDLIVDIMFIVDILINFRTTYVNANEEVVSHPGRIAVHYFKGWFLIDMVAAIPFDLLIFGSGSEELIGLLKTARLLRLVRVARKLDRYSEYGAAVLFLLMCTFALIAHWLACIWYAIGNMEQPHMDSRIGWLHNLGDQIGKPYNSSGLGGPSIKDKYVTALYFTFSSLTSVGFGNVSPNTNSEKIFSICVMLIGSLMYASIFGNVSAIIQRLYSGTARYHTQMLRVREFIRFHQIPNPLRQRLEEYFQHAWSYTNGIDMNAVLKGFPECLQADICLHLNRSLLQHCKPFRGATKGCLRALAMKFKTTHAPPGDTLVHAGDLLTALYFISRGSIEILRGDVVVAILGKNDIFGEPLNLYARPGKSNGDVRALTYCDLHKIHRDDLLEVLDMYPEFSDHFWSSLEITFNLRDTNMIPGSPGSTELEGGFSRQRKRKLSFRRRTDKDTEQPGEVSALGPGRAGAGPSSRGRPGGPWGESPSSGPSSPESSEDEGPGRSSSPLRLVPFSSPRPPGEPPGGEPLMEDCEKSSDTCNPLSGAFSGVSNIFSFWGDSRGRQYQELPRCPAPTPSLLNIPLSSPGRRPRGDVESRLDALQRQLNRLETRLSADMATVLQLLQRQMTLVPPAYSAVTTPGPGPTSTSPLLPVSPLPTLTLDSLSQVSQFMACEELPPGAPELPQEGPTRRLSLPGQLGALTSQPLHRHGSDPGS

[2] = target: T7, Transporter, Norepinephrine (NET) (Homo sapiens, UniProt P23975); assay: Radioligand binding, Transporter, Norepinephrine (NET)
T7 construct: Eurofins Panlabs
T7 sequence (P23975 whole entry): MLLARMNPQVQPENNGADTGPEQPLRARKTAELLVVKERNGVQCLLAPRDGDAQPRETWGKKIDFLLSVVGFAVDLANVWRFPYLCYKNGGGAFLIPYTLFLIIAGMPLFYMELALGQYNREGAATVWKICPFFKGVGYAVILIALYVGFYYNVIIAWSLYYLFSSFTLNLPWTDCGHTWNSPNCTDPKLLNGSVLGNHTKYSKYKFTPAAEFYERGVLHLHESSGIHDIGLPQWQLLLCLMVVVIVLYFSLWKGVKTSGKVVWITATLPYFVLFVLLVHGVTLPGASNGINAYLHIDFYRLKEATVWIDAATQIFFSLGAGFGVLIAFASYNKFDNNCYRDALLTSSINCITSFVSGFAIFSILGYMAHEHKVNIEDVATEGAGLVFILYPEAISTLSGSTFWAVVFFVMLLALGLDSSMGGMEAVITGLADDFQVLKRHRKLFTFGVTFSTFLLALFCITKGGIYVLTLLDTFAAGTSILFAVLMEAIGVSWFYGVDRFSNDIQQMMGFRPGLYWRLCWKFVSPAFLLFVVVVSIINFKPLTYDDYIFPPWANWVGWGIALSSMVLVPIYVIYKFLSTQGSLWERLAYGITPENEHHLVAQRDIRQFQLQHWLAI

Calcium Channel N-Type = target: T8, Calcium Channel N-Type (Rattus norvegicus, UniProt Q02294); assay: Radioligand binding, Calcium Channel N-Type
T8 construct: Eurofins Panlabs, Inc. (contract assay)

NS(=O)(=O)c1ccc(NC2=CC(=O)c3ccccc3C2=O)cc1 [4-((1,4-dioxo-1,4-dihydronaphthalen-2-yl)amino)benzenesulfonamide]
IC50 (A375 cells): > 35 µM
EC50 (DCT): 100 nM
EC50 (CDK2): 500 nM

NS(=O)(=O)c1ccc(NC2=CC(=O)c3ccccc3C2=O)cc1 [Example 1, 4-((1,4-Dioxo-1,4-dihydronaphthalen-2-yl)amino)benzenesulfonamide]
inhibition at 10 µM (Adrenergic α2A): 33%
inhibition at 10 µM [1]: 5%
inhibition at 10 µM (Adrenergic α1B): 16%
inhibition at 10 µM (Glutamate, NMDA, Glycine): 9%
inhibition at 10 µM (Neuropeptide Y Y1): -6%
inhibition at 10 µM (Potassium Channel hERG): -4%
inhibition at 10 µM [2]: 8%
inhibition at 10 µM (Calcium Channel N-Type): -3%
